From patent US8192962B2, “Processes for detecting toxic substances” (Daikin Industries, Ltd., priority 2001, dated 2012)

Tested on: Genes belonging to other category
Experiment: DNA chip mRNA expression in yeast, genes belonging to other category (Table 9)
Assay type: cell-based, Saccharomyces cerevisiae S288C
In short: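 Ratios compare mRNA levels in stressed and control S. cerevisiae. Each toxicant was applied for two hours to log-phase cultures at 25° C. at a sub-lethal, growth-inhibiting level; fluorescent cDNA (Cy3- or Cy5-dUTP) was hybridized to a genome-wide yeast chip for over 12 h at 65° C.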

## Oc1cc(Cl)c(Cl)cc1Cl [(6), 2,4,5-trichlorophenol]
Yeast gene YJL210W
  The level of expressed mRNA in the presence of chemical substance/The level of expressed mRNA in the absence of chemical substance: 0.6
Yeast gene YJR004C
  The level of expressed mRNA in the presence of chemical substance/The level of expressed mRNA in the absence of chemical substance: 1.2
Yeast gene YJR050W
  The level of expressed mRNA in the presence of chemical substance/The level of expressed mRNA in the absence of chemical substance: 1.4
Yeast gene YJR086W
  The level of expressed mRNA in the presence of chemical substance/The level of expressed mRNA in the absence of chemical substance: 1.9
Yeast gene YJR091C
  The level of expressed mRNA in the presence of chemical substance/The level of expressed mRNA in the absence of chemical substance: 0.8
Yeast gene YJR110W
  The level of expressed mRNA in the presence of chemical substance/The level of expressed mRNA in the absence of chemical substance: 0.9
Yeast gene YJR117W
  The level of expressed mRNA in the presence of chemical substance/The level of expressed mRNA in the absence of chemical substance: 1.3
Yeast gene YJR119C
  The level of expressed mRNA in the presence of chemical substance/The level of expressed mRNA in the absence of chemical substance: 1.4
Yeast gene YJR145C
  The level of expressed mRNA in the presence of chemical substance/The level of expressed mRNA in the absence of chemical substance: 0.4
Yeast gene YKL008C
  The level of expressed mRNA in the presence of chemical substance/The level of expressed mRNA in the absence of chemical substance: 3.8
Yeast gene YKL013C
  The level of expressed mRNA in the presence of chemical substance/The level of expressed mRNA in the absence of chemical substance: 1.9
Yeast gene YKL025C
  The level of expressed mRNA in the presence of chemical substance/The level of expressed mRNA in the absence of chemical substance: 0.9
Yeast gene YKL039W
  The level of expressed mRNA in the presence of chemical substance/The level of expressed mRNA in the absence of chemical substance: 4.9
Yeast gene YKL041W
  The level of expressed mRNA in the presence of chemical substance/The level of expressed mRNA in the absence of chemical substance: 2.2
Yeast gene YKL079W
  The level of expressed mRNA in the presence of chemical substance/The level of expressed mRNA in the absence of chemical substance: 0.8
Yeast gene YKL096W
  The level of expressed mRNA in the presence of chemical substance/The level of expressed mRNA in the absence of chemical substance: 0.6
Yeast gene YKL139W
  The level of expressed mRNA in the presence of chemical substance/The level of expressed mRNA in the absence of chemical substance: 3.5
Yeast gene YKL165C
  The level of expressed mRNA in the presence of chemical substance/The level of expressed mRNA in the absence of chemical substance: 0.6
Yeast gene YKL193C
  The level of expressed mRNA in the presence of chemical substance/The level of expressed mRNA in the absence of chemical substance: 0.9
Yeast gene YKL196C
  The level of expressed mRNA in the presence of chemical substance/The level of expressed mRNA in the absence of chemical substance: 0.9
Yeast gene YKR014C
  The level of expressed mRNA in the presence of chemical substance/The level of expressed mRNA in the absence of chemical substance: 2.1
Yeast gene YKR098C
  The level of expressed mRNA in the presence of chemical substance/The level of expressed mRNA in the absence of chemical substance: 1.8
Yeast gene YLR120C
  The level of expressed mRNA in the presence of chemical substance/The level of expressed mRNA in the absence of chemical substance: 1.9
Yeast gene YLR136C
  The level of expressed mRNA in the presence of chemical substance/The level of expressed mRNA in the absence of chemical substance: 1.7
Yeast gene YLR144C
  The level of expressed mRNA in the presence of chemical substance/The level of expressed mRNA in the absence of chemical substance: 0.9
Yeast gene YLR178C
  The level of expressed mRNA in the presence of chemical substance/The level of expressed mRNA in the absence of chemical substance: 4.2
Yeast gene YLR206W
  The level of expressed mRNA in the presence of chemical substance/The level of expressed mRNA in the absence of chemical substance: 0.5
Yeast gene YLR250W
  The level of expressed mRNA in the presence of chemical substance/The level of expressed mRNA in the absence of chemical substance: 1.1
Yeast gene YLR266C
  The level of expressed mRNA in the presence of chemical substance/The level of expressed mRNA in the absence of chemical substance: 1.0
Yeast gene YLR327C
  The level of expressed mRNA in the presence of chemical substance/The level of expressed mRNA in the absence of chemical substance: 5.1
Yeast gene YLR356W
  The level of expressed mRNA in the presence of chemical substance/The level of expressed mRNA in the absence of chemical substance: 3.4
Yeast gene YLR360W
  The level of expressed mRNA in the presence of chemical substance/The level of expressed mRNA in the absence of chemical substance: 1.4
Yeast gene YLR362W
  The level of expressed mRNA in the presence of chemical substance/The level of expressed mRNA in the absence of chemical substance: 0.8
Yeast gene YLR389C
  The level of expressed mRNA in the presence of chemical substance/The level of expressed mRNA in the absence of chemical substance: 0.2
Yeast gene YLR391W
  The level of expressed mRNA in the presence of chemical substance/The level of expressed mRNA in the absence of chemical substance: 1.5
Yeast gene YLR429W
  The level of expressed mRNA in the presence of chemical substance/The level of expressed mRNA in the absence of chemical substance: 0.8
Yeast gene YMR004W
  The level of expressed mRNA in the presence of chemical substance/The level of expressed mRNA in the absence of chemical substance: 0.5
Yeast gene YMR094W
  The level of expressed mRNA in the presence of chemical substance/The level of expressed mRNA in the absence of chemical substance: 0.5
Yeast gene YMR101C
  The level of expressed mRNA in the presence of chemical substance/The level of expressed mRNA in the absence of chemical substance: 0.4
Yeast gene YMR104C
  The level of expressed mRNA in the presence of chemical substance/The level of expressed mRNA in the absence of chemical substance: 1.9
Yeast gene YMR219W
  The level of expressed mRNA in the presence of chemical substance/The level of expressed mRNA in the absence of chemical substance: 0.8
Yeast gene YMR226C
  The level of expressed mRNA in the presence of chemical substance/The level of expressed mRNA in the absence of chemical substance: 2.6
Yeast gene YMR275C
  The level of expressed mRNA in the presence of chemical substance/The level of expressed mRNA in the absence of chemical substance: 1.4
Yeast gene YMR276W
  The level of expressed mRNA in the presence of chemical substance/The level of expressed mRNA in the absence of chemical substance: 0.8
Yeast gene YMR297W
  The level of expressed mRNA in the presence of chemical substance/The level of expressed mRNA in the absence of chemical substance: 1.8
Yeast gene YMR314W
  The level of expressed mRNA in the presence of chemical substance/The level of expressed mRNA in the absence of chemical substance: 1.3
Yeast gene YNL006W
  The level of expressed mRNA in the presence of chemical substance/The level of expressed mRNA in the absence of chemical substance: 1.0
Yeast gene YNL007C
  The level of expressed mRNA in the presence of chemical substance/The level of expressed mRNA in the absence of chemical substance: 0.6
Yeast gene YNL069C
  The level of expressed mRNA in the presence of chemical substance/The level of expressed mRNA in the absence of chemical substance: 0.4
Yeast gene YNL093W
  The level of expressed mRNA in the presence of chemical substance/The level of expressed mRNA in the absence of chemical substance: 1.6
Yeast gene YNL333W
  The level of expressed mRNA in the presence of chemical substance/The level of expressed mRNA in the absence of chemical substance: 1.5
Yeast gene YNR010W
  The level of expressed mRNA in the presence of chemical substance/The level of expressed mRNA in the absence of chemical substance: 1.3
Yeast gene YNR069C
  The level of expressed mRNA in the presence of chemical substance/The level of expressed mRNA in the absence of chemical substance: 1.7
Yeast gene YOL013C
  The level of expressed mRNA in the presence of chemical substance/The level of expressed mRNA in the absence of chemical substance: 1.1
Yeast gene YOL039W
  The level of expressed mRNA in the presence of chemical substance/The level of expressed mRNA in the absence of chemical substance: 0.4
Yeast gene YOL120C
  The level of expressed mRNA in the presence of chemical substance/The level of expressed mRNA in the absence of chemical substance: 0.3
Yeast gene YOL164W
  The level of expressed mRNA in the presence of chemical substance/The level of expressed mRNA in the absence of chemical substance: 1.2
Yeast gene YOR023C
  The level of expressed mRNA in the presence of chemical substance/The level of expressed mRNA in the absence of chemical substance: 1.8
Yeast gene YOR036W
  The level of expressed mRNA in the presence of chemical substance/The level of expressed mRNA in the absence of chemical substance: 1.7
Yeast gene YOR117W
  The level of expressed mRNA in the presence of chemical substance/The level of expressed mRNA in the absence of chemical substance: 1.1
Yeast gene YOR124C
  The level of expressed mRNA in the presence of chemical substance/The level of expressed mRNA in the absence of chemical substance: 0.9
Yeast gene YOR132W
  The level of expressed mRNA in the presence of chemical substance/The level of expressed mRNA in the absence of chemical substance: 1.6
Yeast gene YOR133W
  The level of expressed mRNA in the presence of chemical substance/The level of expressed mRNA in the absence of chemical substance: 0.9
Yeast gene YOR134W
  The level of expressed mRNA in the presence of chemical substance/The level of expressed mRNA in the absence of chemical substance: 1.4
Yeast gene YOR157C
  The level of expressed mRNA in the presence of chemical substance/The level of expressed mRNA in the absence of chemical substance: 1.2
Yeast gene YOR181W
  The level of expressed mRNA in the presence of chemical substance/The level of expressed mRNA in the absence of chemical substance: 0.9
Yeast gene YOR185C
  The level of expressed mRNA in the presence of chemical substance/The level of expressed mRNA in the absence of chemical substance: 3.0
Yeast gene YOR198C
  The level of expressed mRNA in the presence of chemical substance/The level of expressed mRNA in the absence of chemical substance: 0.9
Yeast gene YOR259C
  The level of expressed mRNA in the presence of chemical substance/The level of expressed mRNA in the absence of chemical substance: 0.8
Yeast gene YOR261C
  The level of expressed mRNA in the presence of chemical substance/The level of expressed mRNA in the absence of chemical substance: 1.4
Yeast gene YOR288C
  The level of expressed mRNA in the presence of chemical substance/The level of expressed mRNA in the absence of chemical substance: 1.0
Yeast gene YOR327C
  The level of expressed mRNA in the presence of chemical substance/The level of expressed mRNA in the absence of chemical substance: 1.4
Yeast gene YOR355W
  The level of expressed mRNA in the presence of chemical substance/The level of expressed mRNA in the absence of chemical substance: 1.6
Yeast gene YOR362C
  The level of expressed mRNA in the presence of chemical substance/The level of expressed mRNA in the absence of chemical substance: 1.4
Yeast gene YOR383C
  The level of expressed mRNA in the presence of chemical substance/The level of expressed mRNA in the absence of chemical substance: 6.8
Yeast gene YPL089C
  The level of expressed mRNA in the presence of chemical substance/The level of expressed mRNA in the absence of chemical substance: 0.8
Yeast gene YPL109C
  The level of expressed mRNA in the presence of chemical substance/The level of expressed mRNA in the absence of chemical substance: 1.2
Yeast gene YPL149W
  The level of expressed mRNA in the presence of chemical substance/The level of expressed mRNA in the absence of chemical substance: 0.9
Yeast gene YPL154C
  The level of expressed mRNA in the presence of chemical substance/The level of expressed mRNA in the absence of chemical substance: 3.5
Yeast gene YPR028W
  The level of expressed mRNA in the presence of chemical substance/The level of expressed mRNA in the absence of chemical substance: 1.4
Yeast gene YPR080W
  The level of expressed mRNA in the presence of chemical substance/The level of expressed mRNA in the absence of chemical substance: 1.4
Yeast gene YPR103W
  The level of expressed mRNA in the presence of chemical substance/The level of expressed mRNA in the absence of chemical substance: 1.2
Yeast gene YPR108W
  The level of expressed mRNA in the presence of chemical substance/The level of expressed mRNA in the absence of chemical substance: 1.5
Yeast gene YPR168W
  The level of expressed mRNA in the presence of chemical substance/The level of expressed mRNA in the absence of chemical substance: 0.4
